Assay results as given in publication PMC6503114, “Application of Antimicrobial Peptides of the Innate Immune System in Combination With Conventional Antibiotics—A Novel Way to Combat Antibiotic Resistance?” (Frontiers in Cellular and Infection Microbiology, 2019).
Values after ≈ are worked out from the molar mass of the structure shown. Where two headings read alike, the source gives them in different places. Where no end group is shown, it is not given here.

Columns and labels:
MRSA ATCC 33591 = test: microbe, parasite or virus in culture; type: cell-based, Staphylococcus aureus; conditions: median of 3–6 experiments, square brackets = twice the maximal tested concentration
Method: (§6) Prior to the “checkerboard” synergy test the minimal inhibitory concentrations (MIC) of individual substances were determined using broth microdilution assay. Testing was performed in 60-well polystyrene Terasaki microplates with V-shaped bottom generally according to the guidelines of the European Committee for Antimicrobial Susceptibility Testing with subtle modifications designed for AMP testing (Tossi et al., [1997]; Wiegand et al., [2008]). Cultivation of bacteria was carried out in 2.1% Müller-Hinton broth at 37°C with shaking. Two-fold serial dilutions of peptides, antibiotics and other antimicrobials were made with 10 mM sodium phosphate buffer, pH 7.4, containing 0.1% of BSA. The plates were preliminary incubated with 0.1% BSA for 1 h at 37°C to reduce a non-specific binding of peptides to the plates. After that BSA was removed, and serial dilutions were added into the plate wells in triplicates followed by the same volume of the suspension of bacterial cells in logarithmic phase of growth in concentration of 1 × 10^6 CFU/ml. After the 18 h overnight incubation at 37°C, the MIC value for each compound was determined as its lowest concentration completely inhibiting the visible growth of bacteria. The final results were calculated as median values based on 3–6 independent experiments.

Human PBMC = test: MTT-test
Method: To obtain neutrophils and mononuclear cells, whole heparinized blood was diluted with sterile PBS in a 1:1 ratio and carefully inserted into the sterile polystyrene 50 ml tube upon the 5 ml of the sterile Ficoll-400 (Pharmacia, Sweden) with a density of 1.077. The tube was centrifuged at 600 g and 4°C for 40 min. After separation, the mononuclear “ring” located between the blood plasma and Ficoll was collected with a Pasteur pipette, transferred to another tube, and washed twice with 10 ml of sterile PBS by centrifugation for 10 min at 300 g and 4°C.
(§1) We calculated Fractional Effective Concentration Index (FECI), which could be seen as a particular case of the interaction index (I) proposed by Berenbaum ([1977]) or of the similar combination index (CI) proposed by Chou and Talalay ([1983]), according to the equation below: […]
(§2) Here, [MEC A] and [MEC B] are the minimum effective concentrations (MEC) of substances A and B, when they are used alone. […] [A] and [B] are respective concentrations of substances A and B in their combination, where the same statistically significant difference is detected. A non-parametric Mann-Whitney U-test (p < 0.05 or p < 0.01) was used for the mentioned statistical comparison.
(§3) We have chosen the same intervals as that of FICI to determine synergy, additivity, independent action, and antagonism based on the minimal FECI values. However, in case of cytotoxic or hemolytic effect we were interested mainly in testing the possibility of additive or synergistic interaction itself, and not in assessing the exact magnitude of such interaction. Thus, in contrast to the “checkerboard titration” method used for combined antimicrobial activity investigation, studying the combined cytotoxic effect, we considered only two combinations of concentrations for the substances A and B in the mixture: • (½ MEC A + ½ MEC B), which, if found effective, provides the FECI value of 1 (the threshold value for additivity); • (¼ MEC A + ¼ MEC B), which, if found effective, provides the FECI value of 0.5 (the threshold value for synergetic interaction).
(§4) When action on tumor cells was tested in combination with antitumor antibiotic the lower concentrations up to ( 1/16 MEC A + 1/16 MEC B) as in checkerboard titration were additionally examined to assess the magnitude of synergistic effect more precisely. The final conclusion was made based on the three independent experiments.
(§5) Standard MTT-test (Mosmann, [1983]) was used for the examination of the cytotoxic activity of antimicrobial compounds and their combinations toward varied eukaryotic cells. Briefly, cell suspensions in RPMI-1640 prepared as described in Eukaryotic Cells were dispensed into the 96-well microplates (2 × 10^5 cells/well). Then, serial dilutions of AMPs, or other antibiotic compounds, or their mixtures in RPMI-1640 were added. In positive controls (100% cell survival) the according volume of RPMI-1640 without test substances was added instead. The final volume in each well was 100 μl. Negative controls (0% cell survival) were made with 100 μl of the sterile RPMI-1640. The plates were incubated at 37°C under 5% CO2 for 24 h. Four hours before the end of incubation, 10 μl of metabolic marker MTT−3-(4,5-dimethylthiazol-2-yl)-2,5-diphenyltetrazolium bromide (5 mg/ml, diluted in PBS) was added to each well. Incubation was stopped by adding 90 μl of isopropanol containing 0.04 M HCl. Content of the wells was thoroughly mixed, so that the formazan crystals, formed in case of the reduction of MTT in presence of actively metabolizing cells, were fully dissolved. The optical density of the samples was evaluated at 540 nm, subtracting the background absorbance at 690 nm, by SpectraMax 250 Spectrophotometer (Molecular Devices, USA). The experiments were repeated at least three times. In each experiment test samples were made in triplicates and control samples were made in hexaplicates.

[1] = system: A. baumannii (clin. isol.); test: microbe, parasite or virus in culture; type: cell-based, Acinetobacter baumannii
Method: as §6

K562 = K562 tumor cells (doxorubicin-sensitive); MTT, 24 h
Method: The human erythromyeloid leukemia cell line K562 was obtained from the collection of the Institute of Cytology RAS (Saint Petersburg, Russia) and cultured in RPMI-1640 medium containing gentamicin (100 μg/ml) and 10% of fetal bovine serum at 37°C, 5% CO2. […] Drug resistance was maintained by monthly selection with the antibiotic (2 μg/ml in the culturing medium). Doxorubicin was removed from the medium 3 days prior to beginning any experiments. Before the testing K562 cells were washed twice with PBS and resuspended in RPMI-1640 in the same way as the other cell types.
as §1, §2, §3, §4
as §5, with “dissolved.” for “dissolved. The optical density of the samples was evaluated at 540 nm, subtracting the background absorbance at 690 nm, by SpectraMax 250 Spectrophotometer (Molecular Devices, USA). The experiments were repeated at least three times. In each experiment test samples were made in triplicates and control samples were made in hexaplicates.”

Human neutrophils = system: Human neutrophils
Method: The pellet formed under the Ficoll-400 layer after separation contained both neutrophils and erythrocytes. It was also transferred into a separate tube, where the red blood cells were lysed with 0.83% ammonium chloride solution, which was added in a ratio of 1:4. After the thorough mixing, the suspension was incubated for 10 min at room temperature, and then centrifuged for 10 min at 300 g and 4°C. The resulting precipitate containing neutrophils was washed twice with the sterile PBS.
as §1, §2, §3, §4, §5

[2] = Staphylococcus aureus, read-out: MIC
[3] = Acinetobacter baumannii, A. baumannii (clin. isol.), susceptible, median of 3–6 experiments, read-out: MIC
[4] = Human PBMC, normal cells, MTT, 24 h, square brackets = twice the maximal tested concentration
[5] = Human neutrophils, normal cells, MTT, 24 h
[6] = A. baumannii (clin. isol.), susceptible, median of 3–6 experiments, read-out: MIC

| Molecule | MIC (MRSA ATCC 33591; [2]) [µM] | MEC of cytotoxic action (Human PBMC; human, 24 h) | MIC [1, 3] [µM] | MEC of cytotoxic action (K562) | MEC of cytotoxic action (Human neutrophils; human, 24 h) | further results |
| --- | --- | --- | --- | --- | --- | --- |
| CNC(C)C1CCC(N)C(OC2C(N)CC(N)C(OC3OCC(C)(O)C(NC)C3O)C2O)O1 (stereo not drawn) [Gentamicin] | 0.16 (≈ 0.0764 µg/mL) | >50 [100] μM | 0.06 (≈ 0.0287 µg/mL) | 50 µM | 50 µM |  |
| CO[C@H]1/C=C/O[C@@]2(C)Oc3c(C)c(O)c4c(O)c(c(/C=N/N5CCN(C)CC5)c(O)c4c3C2=O)NC(=O)/C(C)=C\C=C\[C@H](C)[C@H](O)[C@@H](C)[C@@H](O)[C@@H](C)[C@H](OC(C)=O)[C@@H]1C [Rifampicin] | 0.003 (≈ 0.00247 µg/mL) | >20 [40] μM |  | >20 [40] μM | 20 µM | MIC ([1]; Acinetobacter baumannii): 0.125 µM (≈ 0.103 µg/mL) |
| Cc1onc(-c2ccccc2)c1C(=O)N[C@@H]1C(=O)N2[C@@H]1SC(C)(C)[C@@H]2C(=O)O [Oxacillin] | 7.5 (≈ 3.01 µg/mL) | >50 [100] μM | 25 (≈ 10 µg/mL) | >50 [100] μM | >50 [100] μM |  |
| CC1COc2c(N3CCN(C)CC3)c(F)cc3c(=O)c(C(=O)O)cn1c23 (stereo not drawn) [Ofloxacin] | 0.625 (≈ 0.226 µg/mL) | >50 [100] μM | 0.3 (≈ 0.108 µg/mL) | >50 [100] μM | >50 [100] μM |  |
| CC[C@H](C)[C@H](NC(=O)[C@H](CCCCN)NC(=O)[C@H](CCC(=O)O)NC(=O)[C@H](CCCCN)NC(=O)[C@H](CO)NC(=O)[C@H](CCCCN)NC(=O)[C@H](CCCNC(=N)N)NC(=O)[C@H](Cc1ccccc1)NC(=O)[C@H](Cc1ccccc1)NC(=O)[C@H](CC(=O)O)NC(=O)CNC(=O)[C@H](CC(C)C)NC(=O)[C@@H](N)CC(C)C)C(=O)NCC(=O)N[C@@H](CCCCN)C(=O)N[C@@H](CCC(=O)O)C(=O)N[C@@H](Cc1ccccc1)C(=O)N[C@@H](CCCCN)C(=O)N[C@@H](CCCNC(=N)N)C(=O)N[C@H](C(=O)N[C@H](C(=O)N[C@@H](CCC(N)=O)C(=O)N[C@@H](CCCNC(=N)N)C(=O)N[C@H](C(=O)N[C@@H](CCCCN)C(=O)N[C@@H](CC(=O)O)C(=O)N[C@@H](Cc1ccccc1)C(=O)N[C@@H](CC(C)C)C(=O)N[C@@H](CCCNC(=N)N)C(=O)N[C@@H](CC(N)=O)C(=O)N[C@@H](CC(C)C)C(=O)N[C@H](C(=O)N1CCC[C@H]1C(=O)N[C@@H](CCCNC(=N)N)C(=O)N[C@H](C(=O)N[C@@H](CCC(=O)O)C(=O)N[C@@H](CO)C(=O)O)[C@@H](C)O)C(C)C)[C@@H](C)CC)C(C)C)[C@@H](C)CC [LL-37] |  |  |  | 5.0 µM |  | MEC of cytotoxic action (Human PBMC; [4]): 12 µM; MEC of cytotoxic action (Human neutrophils; [5]): 10 µM |
| Lysozyme: egg white lysozyme, antimicrobial protein, from BioChemica |  |  |  | >50 [100] μM |  | MIC (MRSA ATCC 33591): >250 [500] μM; MEC of cytotoxic action (Human PBMC): >50 [100] μM; MIC [1, 6]: 1.2 µM; MEC of cytotoxic action (Human neutrophils): >50 [100] μM |
| Polymyxin B |  |  |  | 25 µM |  | MIC (MRSA ATCC 33591; read-out: MIC): 12.5 µM; MEC of cytotoxic action (Human PBMC; [4]): 50 µM; MIC [1, 6]: 1.25 µM; MEC of cytotoxic action (Human neutrophils; [5]): >50 [100] μM |
| RFRLPFRRPPIRIHPPPFYPPFRRFL-NH2 (C-terminus assumed) [ChBac3.4] |  |  |  | 20 µM |  | MEC of cytotoxic action (Human PBMC): 20 µM; MEC of cytotoxic action (Human neutrophils): >20 [40] μM |
